# Experimental data from patent publication US20240285615A1, “MEDICAMENTS COMPRISING GLYCOSIDASE INHIBITORS” (priority 2021, published 2024).
# Assays:
# [1] = system: kainate-induced seizure rat model; settings: rats, daily oral gavage for 3 consecutive days
# Description: Compound of formula (I) is evaluated in the kainate-induced seizure rat model. Sprague-Dawley rats are treated with intraperitoneal injection of kainate (10 mg/kg) to induce seizure or with saline as vehicle control. […] The onset of status epilepticus (SE) is defined as the time from kainate injection to the occurrence of continuous seizure activity (Racine score 4-5) over a period of 4 h. Four weeks following the administration of kainate, animals undergo EEG surgery for electrodes implantation at the surface of the dura mater. […] Then, the animals receive a daily administration (oral gavage) of compound formula (I) for 3 consecutive days during which, cerebral activity is monitored by EEG recording. Animals are finally sacrificed ninety-six hours (4 days) post-baseline.
# [2] = system: patients with probable PSP Richardson's syndrome; experiment: Phase 2 clinical trial, dose extension (Example 7); type: in vivo, human; settings: 300 mg, 150 mg or 75 mg TID PO
# Description: The study design of this Example 7 is analogous to the study described in Example 6, a randomized, multi-centre, double-blind, placebo-controlled trial to study the safety and tolerability of compound (I) in patients with probable PSP Richardson's syndrome. Approximately 40 patients (40 to 85 years of age, inclusive) are randomized in a 2:1:1:1 ratio to 300 mg or 150 mg or 75 mg or placebo TID PO, with or without food.
# [3] = Phase 1 Part 1b: food effect, single 300 mg dose fasted/fed, plasma pharmacokinetics; type: in vivo, human; settings: for Tmax / AUC(0-inf) / Cmax / half-life: human, plasma; for AUC(0-inf) / Cmax / half-life: arithmetic mean
# Description: The study was a single-centre, randomized, placebo-controlled single- and multiple ascending dose study in healthy male and female (no childbearing potential) volunteers aged 18-80 years. Study objectives were safety, tolerability, food effect and pharmacokinetics. Following identification of safe and tolerable single doses in healthy male subjects aged 18-55 years, separate cohorts were dosed to assess food effect. Furthermore, multiple-dose safety, tolerability, pharmacokinetics, CSF drug levels and pharmacodynamics were assessed in elderly (age 55-80 years) male or healthy non-child-bearing potential female volunteers. [table]
# [4] = Summary statistics of steady-state metrics by mathematical modeling of pharmacokinetic data; design: species or system human
# Text: The following summary statistics of steady-state metrics have been determined based on the above experimental results (“Mathematical Modeling of Pharmacokinetic Data”, D. W. A. Bourne, Routledge, 2018): […]
# [5] = Phase 1 Part 1a: single rising oral doses, fasted, plasma pharmacokinetics; type: in vivo, human; settings: for AUC(0-inf) / Cmax / Tmax / half-life: human, plasma
# Text: A Randomized, Double-Blind, Placebo-Controlled, Phase 1 Study to Assess the Safety, Tolerability, Pharmacokinetics and Food Effect of Single and Multiple Doses of Orally Administered Compound of Formula (I) in Healthy Adult and Elderly Subjects The study was a single-centre, randomized, placebo-controlled single- and multiple ascending dose study in healthy male and female (no childbearing potential) volunteers aged 18-80 years. Study objectives were safety, tolerability, food effect and pharmacokinetics. Following identification of safe and tolerable single doses in healthy male subjects aged 18-55 years, separate cohorts were dosed to assess food effect. Furthermore, multiple-dose safety, tolerability, pharmacokinetics, CSF drug levels and pharmacodynamics were assessed in elderly (age 55-80 years) male or healthy non-child-bearing potential female volunteers. [table] The single-dose pharmacokinetics of seven, ascending, dose levels of compound of Formula (I) (20, 40, 80, 160, 300, 600 and 1000 mg of compound (I) fasted state) were evaluated in part 1a of a randomized, placebo-controlled, time lagged, parallel/crossover group study in healthy young volunteers Compound (I) pharmacokinetic data were measured in plasma and in urine up to 72 hours post dose.
# [6] = po, single oral dose 300 mg, fasted condition, healthy elderly subjects
# [7] = po, single oral dose 300 mg, fed condition, healthy elderly subjects
# [8] = single oral dose 20 mg, fasted, healthy male subjects, arithmetic mean
# [9] = single oral dose 40 mg, fasted, healthy male subjects, arithmetic mean
# [10] = single oral dose 80 mg, fasted, healthy male subjects, arithmetic mean
# [11] = single oral dose 160 mg, fasted, healthy male subjects, arithmetic mean
# [12] = single oral dose 300 mg, fasted, healthy male subjects, arithmetic mean
# [13] = single oral dose 600 mg, fasted, healthy male subjects, arithmetic mean
# [14] = single oral dose 1000 mg, fasted, healthy male subjects, arithmetic mean
compound,measurement,setting,value
CC(=O)Nc1nnc(N2CCN([C@@H](C)c3ccc4c(c3)OCO4)CC2)s1 [Compound (I)],"epileptic activity by EEG (number of seizures, seizure duration, interictal spike frequency)",[1],reducing the epileptic activity
same,"efficacy, safety and tolerability of the preferred dosage regimen",[2],"especially effective, safe and well tolerated"
same,"overall exposure via AUC0-t and AUC0-inf, fed versus fasted",[3],comparable
same,"difference of exposure (AUC) and Cmax, healthy elderly versus healthy young cohort",[3]; fasted state,15%
same,Cmax in fed state as share of Cmax in fasted state,[3]; healthy elderly subjects,about 60%
same,delay of absorption in fed state,[3]; healthy elderly subjects,approximately 3 hours
same,exposure (AUC) in fed state as share of exposure in fasted state,[3]; healthy elderly subjects,approximately 90%
same,Tmax,"[3]; oral, fasted condition, read-out: median Tmax",1 h
same,Tmax,"[3]; oral, with high-fat, high-calorie meal, read-out: median Tmax",4 h
same,AUC(0-inf),[3]; [6],17100 ng·h/mL
same,Cmax,[3]; [6],4160 ng/mL
same,half-life,[3]; [6],7.27 h
same,Tmax,"[3]; po, single oral dose 300 mg, fasted condition, healthy elderly subjects, median (min, max), read-out: Tmax",1 h
same,AUC(0-inf),[3]; [7],15100 ng·h/mL
same,Cmax,[3]; [7],2410 ng/mL
same,half-life,[3]; [7],7.06 h
same,Tmax,"[3]; po, single oral dose 300 mg, fed condition, healthy elderly subjects, median (min, max), read-out: Tmax",4 h
same,AUC mean,[4]; BID 125 mg,12589 ng·h/mL
same,AUC median,[4]; BID 125 mg,12388 ng·h/mL
same,Cavg mean,[4]; BID 125 mg,521 ng/mL
same,Cavg median,[4]; BID 125 mg,358 ng/mL
same,Cmax mean,[4]; BID 125 mg,1508 ng/mL
same,Cmax median,[4]; BID 125 mg,1510 ng/mL
same,Cmin mean,[4]; BID 125 mg,139 ng/mL
same,Cmin median,[4]; BID 125 mg,130 ng/mL
same,AUC mean,[4]; BID 250 mg,25763 ng·h/mL
same,AUC median,[4]; BID 250 mg,25044 ng·h/mL
same,Cavg mean,[4]; BID 250 mg,1041 ng/mL
same,Cavg median,[4]; BID 250 mg,720 ng/mL
same,Cmax mean,[4]; BID 250 mg,3027 ng/mL
same,Cmax median,[4]; BID 250 mg,3019 ng/mL
same,Cmin mean,[4]; BID 250 mg,307 ng/mL
same,Cmin median,[4]; BID 250 mg,276 ng/mL
same,AUC mean,[4]; BID 500 mg,52673 ng·h/mL
same,AUC median,[4]; BID 500 mg,52166 ng·h/mL
same,Cavg mean,[4]; BID 500 mg,2178 ng/mL
same,Cavg median,[4]; BID 500 mg,1531 ng/mL
same,Cmax mean,[4]; BID 500 mg,6126 ng/mL
same,Cmax median,[4]; BID 500 mg,6133 ng/mL
same,Cmin mean,[4]; BID 500 mg,654 ng/mL
same,Cmin median,[4]; BID 500 mg,617 ng/mL
same,AUC mean,[4]; TID 75 mg,11072 ng·h/mL
same,AUC median,[4]; TID 75 mg,10887 ng·h/mL
same,Cavg mean,[4]; TID 75 mg,456 ng/mL
same,Cavg median,[4]; TID 75 mg,392 ng/mL
same,Cmax mean,[4]; TID 75 mg,1058 ng/mL
same,Cmax median,[4]; TID 75 mg,1053 ng/mL
same,Cmin mean,[4]; TID 75 mg,109 ng/mL
same,Cmin median,[4]; TID 75 mg,101 ng/mL
same,AUC mean,[4]; TID 150 mg,23204 ng·h/mL
same,AUC median,[4]; TID 150 mg,22835 ng·h/mL
same,Cavg mean,[4]; TID 150 mg,951 ng/mL
same,Cavg median,[4]; TID 150 mg,827 ng/mL
same,Cmax mean,[4]; TID 150 mg,2162 ng/mL
same,Cmax median,[4]; TID 150 mg,2143 ng/mL
same,Cmin mean,[4]; TID 150 mg,257 ng/mL
same,Cmin median,[4]; TID 150 mg,240 ng/mL
same,AUC mean,[4]; TID 300 mg,46780 ng·h/mL
same,AUC median,[4]; TID 300 mg,45869 ng·h/mL
same,Cavg mean,[4]; TID 300 mg,1909 ng/mL
same,Cavg median,[4]; TID 300 mg,1660 ng/mL
same,Cmax mean,[4]; TID 300 mg,4348 ng/mL
same,Cmax median,[4]; TID 300 mg,4298 ng/mL
same,Cmin mean,[4]; TID 300 mg,533 ng/mL
same,Cmin median,[4]; TID 300 mg,499 ng/mL
same,deviation of dose normalized AUC,"[5]; AUC over 24 hours, dose levels 300, 600 and 1000 mg",≤ 10%
same,AUC(0-inf),[5]; [8],473 ng·h/mL
same,Cmax,[5]; [8],227 ng/mL
same,Tmax,"[5]; single oral dose 20 mg, fasted, healthy male subjects, median (min, max), read-out: Tmax",0.5 h
same,AUC(0-inf),[5]; [9],1160 ng·h/mL
same,Cmax,[5]; [9],468 ng/mL
same,Tmax,"[5]; single oral dose 40 mg, fasted, healthy male subjects, median (min, max), read-out: Tmax",1 h
same,AUC(0-inf),[5]; [10],3270 ng·h/mL
same,Cmax,[5]; [10],1370 ng/mL
same,Tmax,"[5]; single oral dose 80 mg, fasted, healthy male subjects, median (min, max), read-out: Tmax",0.5 h
same,AUC(0-inf),[5]; [11],7010 ng·h/mL
same,Cmax,[5]; [11],1880 ng/mL
same,Tmax,"[5]; single oral dose 160 mg, fasted, healthy male subjects, median (min, max), read-out: Tmax",1.5 h
same,AUC(0-inf),[5]; [12],15400 ng·h/mL
same,Cmax,[5]; [12],3990 ng/mL
same,Tmax,"[5]; single oral dose 300 mg, fasted, healthy male subjects, median (min, max), read-out: Tmax",1.25 h
same,AUC(0-inf),[5]; [13],33300 ng·h/mL
same,Cmax,[5]; [13],7180 ng/mL
same,Tmax,"[5]; single oral dose 600 mg, fasted, healthy male subjects, median (min, max), read-out: Tmax",1.25 h
same,AUC(0-inf),[5]; [14],50200 ng·h/mL
same,Cmax,[5]; [14],10100 ng/mL
same,Tmax,"[5]; single oral dose 1000 mg, fasted, healthy male subjects, median (min, max), read-out: Tmax",1.5 h
same,half-life,"[5]; male, oral, single dose 20 to 1000 mg, read-out: terminal half-life (t½), range of means at the different dose levels",3.9 to 10.7 h
same,half-life,"[5]; male, oral, single dose 20 mg to 1000 mg, read-out: mean terminal half-life, range over the 7 dose levels",4.59 to 8.84 h
same,Tmax,"[5]; male, oral, single dose 20 mg to 1000 mg, read-out: median Tmax, range over dose levels",0.5 to 1.5 h
same,half-life,"[5]; male, po, 20 mg, single oral dose 20 mg, fasted, healthy male subjects, arithmetic mean, read-out: t1/2 (converted)",4.59 h
same,half-life,"[5]; male, po, 40 mg, single oral dose 40 mg, fasted, healthy male subjects, arithmetic mean, read-out: t1/2 (converted)",5.95 h
same,half-life,"[5]; male, po, 80 mg, single oral dose 80 mg, fasted, healthy male subjects, arithmetic mean, read-out: t1/2 (converted)",8.84 h
same,half-life,"[5]; male, po, 160 mg, single oral dose 160 mg, fasted, healthy male subjects, arithmetic mean, read-out: t1/2 (converted)",6.83 h
same,half-life,"[5]; male, po, 300 mg, single oral dose 300 mg, fasted, healthy male subjects, arithmetic mean, read-out: t1/2 (converted)",7.95 h
same,half-life,"[5]; male, po, 600 mg, single oral dose 600 mg, fasted, healthy male subjects, arithmetic mean, read-out: t1/2 (converted)",6.07 h
same,half-life,"[5]; male, po, 1000 mg, single oral dose 1000 mg, fasted, healthy male subjects, arithmetic mean, read-out: t1/2 (converted)",6.6 h
same,dose proportionality of Cmax,"[5]; single dose, dosing range 20 mg to 1000 mg",Dose proportionality was observed
same,dose proportionality of AUCs,"[5]; single dose, dosing range 300 mg to 1000 mg",Dose proportionality was observed
